Laboratory results as given in US20240109903A1, “SUBSTITUTED HETEROCYCLES FOR TREATING CANCER” (Northwestern University, priority 2022, published 2024).

What was measured:
Type in all cases: cell-based
CCRF-CEM = assay: NCI 60 five-dose screen CCRF-CEM; conditions: Homo sapiens, five-dose; for CC50: read-out: LC50 (the source's name)
NCI-H23 = assay: NCI 60 five-dose screen NCI-H23; conditions: Homo sapiens, five-dose; for CC50: read-out: LC50 (the source's name) (converted)
COLO 205 = assay: NCI 60 five-dose screen COLO 205; conditions: Homo sapiens, five-dose; for CC50: read-out: LC50 (the source's name) (converted)
HCC-2998 = assay: NCI 60 five-dose screen HCC-2998; conditions: Homo sapiens, five-dose; for CC50: read-out: LC50 (the source's name) (converted)
KM12 = assay: NCI 60 five-dose screen KM12; conditions: Homo sapiens, five-dose; for CC50: read-out: LC50 (the source's name) (converted)
LOX IMVI = assay: NCI 60 five-dose screen LOX IMVI; conditions: Homo sapiens, five-dose; for CC50: read-out: LC50 (the source's name) (converted)
SK-MEL-2 = assay: NCI 60 five-dose screen SK-MEL-2; conditions: Homo sapiens, five-dose; for CC50: read-out: LC50 (the source's name) (converted)
UACC-257 = assay: NCI 60 five-dose screen UACC-257; conditions: Homo sapiens, five-dose; for CC50: read-out: LC50 (the source's name) (converted)
UACC-62 = assay: NCI 60 five-dose screen UACC-62; conditions: Homo sapiens, five-dose; for CC50: read-out: LC50 (the source's name) (converted)
OVCAR-8 = assay: NCI 60 five-dose screen OVCAR-8; conditions: Homo sapiens, five-dose; for CC50: read-out: LC50 (the source's name) (converted)
NCI/ADR-RES = assay: NCI 60 five-dose screen NCI/ADR-RES; conditions: Homo sapiens, five-dose; for CC50: read-out: LC50 (the source's name) (converted)
SK-OV-3 = assay: NCI 60 five-dose screen SK-OV-3; conditions: Homo sapiens, five-dose; for CC50: read-out: LC50 (the source's name) (converted)
A498 = assay: NCI 60 five-dose screen A498; conditions: Homo sapiens, five-dose; for CC50: read-out: LC50 (the source's name) (converted)
SN12C = assay: NCI 60 five-dose screen SN12C; conditions: Homo sapiens, five-dose; for CC50: read-out: LC50 (the source's name) (converted)
UO-31 = assay: NCI 60 five-dose screen UO-31; conditions: Homo sapiens, five-dose; for CC50: read-out: LC50 (the source's name) (converted)
DU-145 = assay: NCI 60 five-dose screen DU-145; conditions: Homo sapiens, five-dose; for CC50: read-out: LC50 (the source's name) (converted)
BT-549 = assay: NCI 60 five-dose screen BT-549; conditions: Homo sapiens, five-dose; for CC50: read-out: LC50 (the source's name) (converted)
MDA-MB-468 = assay: NCI 60 five-dose screen MDA-MB-468; conditions: Homo sapiens, five-dose; for CC50: read-out: LC50 (the source's name) (converted)

With `FC(F)(F)c1cc2c(Cl)ncnc2n1CCN1CCOCC1` [NUCC-0226680] the GI50 (CCRF-CEM) was 16.6 µM, the IC50 (CCRF-CEM) was 35.5 µM and the IC (TGI) (CCRF-CEM) was 100 µM. The CC50 (CCRF-CEM) was at least 100 µM, the GI50 (NCI-H23) was 17.8 µM and the IC50 (NCI-H23) was 37.2 µM. It also gave an IC (TGI) (NCI-H23) of 74.1 µM, a CC50 (NCI-H23) of at least 100 µM and a GI50 (COLO 205) of 26.3 µM. It also gave an IC50 (COLO 205) of 58.9 µM, an IC (TGI) (COLO 205) of 100 µM and a CC50 (COLO 205) of at least 100 µM. For the same compound, the GI50 (HCC-2998) was 2.24 µM, the IC50 (HCC-2998) was 4.07 µM and the IC (TGI) (HCC-2998) was 5.13 µM. It also gave a CC50 (HCC-2998) of 15.8 µM, a GI50 (KM12) of 35.5 µM and an IC50 (KM12) of 51.3 µM. It also gave an IC (TGI) (KM12) of 100 µM, a CC50 (KM12) of at least 100 µM and a GI50 (LOX IMVI) of 1.74 µM. It also gave an IC50 (LOX IMVI) of 3.02 µM, an IC (TGI) (LOX IMVI) of 3.39 µM and a CC50 (LOX IMVI) of 6.61 µM. It also gave a GI50 (SK-MEL-2) of 17.4 µM, an IC50 (SK-MEL-2) of 33.9 µM and an IC (TGI) (SK-MEL-2) of 33.1 µM. The CC50 (SK-MEL-2) was 64.6 µM, the GI50 (UACC-257) was 10.5 µM and the IC50 (UACC-257) was 23.4 µM. It also gave an IC (TGI) (UACC-257) of 30.2 µM, a CC50 (UACC-257) of 87.1 µM and a GI50 (UACC-62) of 10.7 µM. It also gave an IC50 (UACC-62) of 20.9 µM, an IC (TGI) (UACC-62) of 32.4 µM and a CC50 (UACC-62) of 97.7 µM. The GI50 (OVCAR-8) was 8.51 µM, the IC50 (OVCAR-8) was 13.8 µM and the IC (TGI) (OVCAR-8) was 29.5 µM. It also gave a CC50 (OVCAR-8) of 93.3 µM, a GI50 (NCI/ADR-RES) of 30.2 µM and an IC50 (NCI/ADR-RES) of 57.5 µM. It also gave an IC (TGI) (NCI/ADR-RES) of 100 µM, a CC50 (NCI/ADR-RES) of at least 100 µM and a GI50 (SK-OV-3) of 100 µM. It also gave an IC50 (SK-OV-3) of 100 µM, an IC (TGI) (SK-OV-3) of 100 µM and a CC50 (SK-OV-3) of at least 100 µM. For the same compound, the GI50 (A498) was 100 µM, the IC50 (A498) was 100 µM and the IC (TGI) (A498) was 100 µM. It also gave a CC50 (A498) of at least 100 µM, a GI50 (SN12C) of 19.5 µM and an IC50 (SN12C) of 38.9 µM. For the same compound, the IC (TGI) (SN12C) was 100 µM, the CC50 (SN12C) was at least 100 µM and the GI50 (UO-31) was 2.51 µM. The IC50 (UO-31) was 5.37 µM, the IC (TGI) (UO-31) was 8.91 µM and the CC50 (UO-31) was 37.2 µM. The GI50 (DU-145) was 28.8 µM, the IC50 (DU-145) was 50.1 µM and the IC (TGI) (DU-145) was 100 µM. For the same compound, the CC50 (DU-145) was at least 100 µM, the GI50 (BT-549) was 13.5 µM and the IC50 (BT-549) was 28.2 µM. The IC (TGI) (BT-549) was 28.2 µM, the CC50 (BT-549) was 58.9 µM and the GI50 (MDA-MB-468) was 2.75 µM. For the same compound, the IC50 (MDA-MB-468) was 15.8 µM, the IC (TGI) (MDA-MB-468) was 10.5 µM and the CC50 (MDA-MB-468) was 42.7 µM.

Compound `FC(F)(F)CN1CCN(CCn2c(C(F)(F)F)cc3c(Cl)ncnc32)CC1` [NUCC-0226683] has a GI50 (CCRF-CEM) of 4.37 µM, an IC50 (CCRF-CEM) of 7.41 µM and an IC (TGI) (CCRF-CEM) of 100 µM. The CC50 (CCRF-CEM) was at least 100 µM, the GI50 (NCI-H23) was 5.89 µM and the IC50 (NCI-H23) was 14.8 µM. For the same compound, the IC (TGI) (NCI-H23) was 26.9 µM, the CC50 (NCI-H23) was at least 100 µM and the GI50 (COLO 205) was 18.6 µM. It also gave an IC50 (COLO 205) of 33.9 µM, an IC (TGI) (COLO 205) of 45.7 µM and a CC50 (COLO 205) of at least 100 µM. For the same compound, the GI50 (HCC-2998) was 1.82 µM, the IC50 (HCC-2998) was 3.24 µM and the IC (TGI) (HCC-2998) was 3.31 µM. For the same compound, the CC50 (HCC-2998) was 5.89 µM, the GI50 (KM12) was 17.8 µM and the IC50 (KM12) was 30.2 µM. The IC (TGI) (KM12) was 39.8 µM, the CC50 (KM12) was 89.1 µM and the GI50 (LOX IMVI) was 1.66 µM. The IC50 (LOX IMVI) was 2.95 µM, the IC (TGI) (LOX IMVI) was 3.09 µM and the CC50 (LOX IMVI) was 5.75 µM. It also gave a GI50 (SK-MEL-2) of 15.8 µM, an IC50 (SK-MEL-2) of 31.6 µM and an IC (TGI) (SK-MEL-2) of 30.9 µM. The CC50 (SK-MEL-2) was 60.3 µM, the GI50 (UACC-257) was 4.07 µM and the IC50 (UACC-257) was 11 µM. The IC (TGI) (UACC-257) was 17 µM, the CC50 (UACC-257) was 57.5 µM and the GI50 (UACC-62) was 4.68 µM. The IC50 (UACC-62) was 10 µM, the IC (TGI) (UACC-62) was 18.2 µM and the CC50 (UACC-62) was 47.9 µM. For the same compound, the GI50 (OVCAR-8) was 3.24 µM, the IC50 (OVCAR-8) was 4.47 µM and the IC (TGI) (OVCAR-8) was 11.7 µM. For the same compound, the CC50 (OVCAR-8) was 40.7 µM, the GI50 (NCI/ADR-RES) was 19.1 µM and the IC50 (NCI/ADR-RES) was 35.5 µM. It also gave an IC (TGI) (NCI/ADR-RES) of 46.8 µM, a CC50 (NCI/ADR-RES) of at least 100 µM and a GI50 (SK-OV-3) of 16.2 µM. It also gave an IC50 (SK-OV-3) of 38.9 µM, an IC (TGI) (SK-OV-3) of 43.7 µM and a CC50 (SK-OV-3) of at least 100 µM. It also gave a GI50 (A498) of 21.4 µM, an IC50 (A498) of 100 µM and an IC (TGI) (A498) of 57.5 µM. It also gave a CC50 (A498) of at least 100 µM, a GI50 (SN12C) of 7.76 µM and an IC50 (SN12C) of 13.8 µM. The IC (TGI) (SN12C) was 22.9 µM, the CC50 (SN12C) was 60.3 µM and the GI50 (UO-31) was 1.62 µM. For the same compound, the IC50 (UO-31) was 3.02 µM, the IC (TGI) (UO-31) was 3.24 µM and the CC50 (UO-31) was 6.61 µM. It also gave a GI50 (DU-145) of 12.6 µM, an IC50 (DU-145) of 22.4 µM and an IC (TGI) (DU-145) of 33.1 µM. The CC50 (DU-145) was 87.1 µM, the GI50 (BT-549) was 12.9 µM and the IC50 (BT-549) was 26.9 µM. For the same compound, the IC (TGI) (BT-549) was 26.9 µM, the CC50 (BT-549) was 55 µM and the GI50 (MDA-MB-468) was 2.19 µM. It also gave an IC50 (MDA-MB-468) of 6.03 µM, an IC (TGI) (MDA-MB-468) of 4.9 µM and a CC50 (MDA-MB-468) of 14.1 µM.
